For series [1], the system named is hCMEC/D3-MDR1-EGFP cells. As to the kind of experiment: Doxorubicin toxicity with or without Pgp inhibition by tariquidar, hCMEC/D3-MDR1-EGFP. It counts as cell-based, human. The settings on record: doxorubicin 10 µM, 30 min. How it is done: (§1) For analysis of the effects of doxorubicin on Pgp-inhibited cells, confluent monolayers of RBE4- and hCMEC/D3-MDR1-EGFP cells grown on coverslips were preincubated with or without the Pgp inhibitor tariquidar (0.5 µM, 1 h, 37 °C) in Opti-MEM before the addition of doxorubicin (10 µM, 30 min, 37 °C). After substrate incubation, cells were covered with cell culture medium for 24 h. Cells were then washed once with PBS, fixed with paraformaldehyde (4%, 30 min), and permeabilized with Triton X-100 (1%, 5 min). Finally, cells were washed and coverslips were mounted in Prolong Gold antifade (Carl Roth GmbH, Karlsruhe, Germany) containing 4’,6-diamidino-2-phenylindole (DAPI) to stain nuclei. Analysis was performed with a Zeiss Axio Observer fluorescence microscope including an ApoTome.2 and using a 40× or 63× objective.

Series [2] relates to hCMEC/D3-MDR1-EGFP cells. Nature of the series: Count of Pgp-EGFP-positive intracellular vesicles before and 24 h after doxorubicin, hCMEC/D3-MDR1-EGFP. The format is cell-based, human. The settings on record: doxorubicin 10 µM, 30 min, 24 h after treatment. Here is the method:
(§2) To evaluate the number of green-fluorescent (Pgp-EGFP positive) intracellular vesicles in RBE4- and hCMEC/D3-MDR1-EGFP cells before and 24 h after treatment with doxorubicin (10 µM, 30 min, 37 °C), imaging of the cells was performed using an inverted fluorescence microscope Lumascope 620 (Etaluma Carlsbach, USA) placed in the cell culture incubator. After treatment with doxorubicin, cells were maintained in a doxorubicin-free cell culture medium until imaging. Before imaging, cellular debris was removed by washing the cells twice with sterile PBS followed by the addition of fresh doxorubicin-free culture medium.

In series [3] the test system is RBE4-MDR1-EGFP cells. Nature of the series: Doxorubicin toxicity with or without Pgp inhibition by tariquidar, RBE4-MDR1-EGFP. It counts as cell-based, rat. The settings on record: doxorubicin 10 µM, 30 min. How it is done:
as §1

In series [4] the test system is RBE4-MDR1-EGFP cells. As to the kind of experiment: Count of Pgp-EGFP-positive intracellular vesicles before and 24 h after doxorubicin, RBE4-MDR1-EGFP. The settings on record: doxorubicin 10 µM, 30 min, 24 h after treatment. It counts as cell-based, rat. How it is done: as §2
Series [5] has as its target Pgp in hCMEC/D3-MDR1-EGFP monolayers (Homo sapiens, UniProt P08183). The settings on record: [3H]dLop 5 nM. How it is done:
(§3) For these experiments, a concentration equilibrium transport assay (CETA) was used, which is more sensitive to identify Pgp substrates than conventional bidirectional (concentration gradient) transport assays. In the CETA, the drug is added to both (apical and basolateral) sides of the monolayer, so that the initial drug concentration is the same in both compartments, thereby minimizing the effect of passive diffusion across the cell monolayer.
(§4) In the present study, the CETA assay was used to determine the flux of the radiolabeled Pgp substrate [N-methyl-^3H]N-desmethyl loperamide ([^3H]dLop) across hCMEC/D3-MDR1-EGFP and RBE4-MDR1-EGFP monolayers. […] Cells were grown on permeable ThinCert® filter supports (12-well, 0.4 µm pore size, PET, Greiner Bio-One). […] Transport studies were performed in triplicates seven days after seeding. […] After 30, 60, 120, 180, and 240 min, samples of 50 µL and 70 µL were retrieved from the apical and basolateral chambers, respectively. Quantification of substrate transport was conducted by liquid scintillation counting using a 1450 Microbeta Trilux liquid scintillation counter (Perkin Elmer Wallac). […] Baseline dLop levels were corrected by the amount of dLop absorbed by the filter system as measured in blank inserts without cells. […]

Series [6] concerns the target Pgp in RBE4-MDR1-EGFP monolayers (Homo sapiens, UniProt P08183). The settings on record: [3H]dLop 5 nM. How it is done:
as §3, §4

Series [7] has as its target Pgp in LLC-MDR1 monolayers (Homo sapiens, UniProt P08183). The settings on record: [3H]dLop 5 nM.
Another series deals with Pgp in rBCECs. The settings on record: cited from earlier work.

Regarding `COc1cccc2c1C(=O)c1c(O)c3c(c(O)c1C2=O)C[C@@](O)(C(=O)CO)C[C@@H]3O[C@H]1C[C@H](N)[C@H](O)[C@H](C)O1` [doxorubicin], the “toxicity 24 h after exposure, Pgp inhibited” value in the series with hCMEC/D3-MDR1-EGFP cells [1] (after tariquidar 0.5 µM) and in the series on RBE4-MDR1-EGFP cells [3] (after tariquidar 0.5 µM) was “cell death” each time. Also, the “toxicity 24 h after exposure, absence of Pgp inhibition” value in the series on hCMEC/D3-MDR1-EGFP cells [1] (no tariquidar) and with RBE4-MDR1-EGFP cells [3] (no tariquidar) was “without any signs of toxicity” in each case. Also, the entries for the “increase of average number of Pgp-EGFP-positive vesicles per cell” value in the series with hCMEC/D3-MDR1-EGFP cells [2] and in the series on RBE4-MDR1-EGFP cells [4] were 170% and 220%, respectively.

Consider `[3H]CNC(=O)C(CCN1CCC(O)(c2ccc(Cl)cc2)CC1)(c1ccccc1)c1ccccc1` [dLop, [N-methyl-^3H]N-desmethyl loperamide], for which the “asymmetrical (basolateral to apical) transport in CETA” value is reported as “not observed” in series [5], “not observed” in series [6] and “such transport was obtained” in series [7].

Regarding `COc1ccc(C[C@H](N)C(=O)N[C@H]2[C@@H](O)[C@H](n3cnc4c(N(C)C)ncnc43)O[C@@H]2CO)cc1` [puromycin], the “effect of drug exposure on Rho123 accumulation” value in the series with Pgp in rBCECs was “significantly reduced”.
